Source: US9381196B2, “Compounds, pharmaceutical compositions and methods of use of hydroxamic acid derivatives” (THE TRANSLATIONAL GENOMICS RESEARCH INSTITUTE, priority 2008, dated 2016)
Like-named read-outs stand apart in the source and are kept apart here.

Key:
Skov-3 cells = assay: CellTiter-Blue cell viability assay, SKOV3 cell line; format: cell-based; settings: cell growth inhibition
From the text: Cell viability in the presence of varying concentrations of the above listed aspects of the disclosed compound at different time points was used to assess cytotoxicity and the effect of the disclosed compound on cell proliferation.

mdamb231 cells = assay: CellTiter-Blue cell viability assay, mdamb231 cell line; format: cell-based; settings: cell growth inhibition
From the text: (§6) Where X is the logarithm of concentration and Y is the response. Y starts at the Bottom and goes to Top with a sigmoid shape.

MiaPaca cells = assay: CellTiter-Blue cell viability assay, MiaPaCa cell line; format: cell-based, human; settings: cell growth inhibition
From the text: as §6

A2780 cell line = settings: 72 hours treatment
Description: (§1) Cell viability was measured by the CellTiter-Blue® cell viability assay Promega (Madison, Wis.). This procedure measures the conversion of the indicator dye (resazurin) to resorufin, an indicator of cell viability. Following treatment, growth media was removed and cells were incubated with 20 μl of CellTiter-Blue® Reagent and growth media for 1-4 hours at 37° C. Fluorescence values were measured at 535/590 nm using a Beckman-Coulter DTX-880 microplate reader.
(§2) Cells were grown to 70% confluency, trypsinized, counted, and seeded in 96 well flat-bottom plates at a final concentration of 2.5×10^3-5×10^3 cells/well (Day 0). Cells were allowed to incubate in growth media for 24 hours to allow for maximum adhesion. Treatment with the test agents or standard agents began on Day 1 and continued for 72 hours. At the 72 hour timepoint, treatment including media was removed. Viable cell numbers are quantified by the CellTiter-Blue® cell viability assay as described above. Experiments were repeated at least twice with the same concentrations to determine growth inhibitory activity.
(§3) Single agent and combination studies, data from each experiment was collected and expressed as % Cell Growth using the following calculation: % Cell Growth=(ftest/fvehicle)×100
(§4) Where ftest is the fluorescence of the tested sample, and fvehicle is the fluorescence of the vehicle in which the drug is dissolved. Dose response graphs and IC50 values were generated using Prism 4 software (GraphPad) using the following equation: […]
(§5) Where X is the logarithm of concentration and Y is the response.

H23 cell line = settings: 72 hours treatment
Description: as §1, §2, §3, §4, §5

H295R cell line = settings: 72 hours treatment
Description: as §1, §2, §3, §4, §5

MV522 cell line = settings: 72 hours treatment
Description: as §1, §2, §3, §4, §5

PANC-1 cell line = settings: 72 hours treatment
Description: as §1, §2, §3, §4, §5

VCAP cell line = settings: 72 hours treatment
Description: as §1, §2, §3, §4, §5

[1] = tested on: MIA PaCa-2 human pancreas cells xenograft; settings: MIA PaCa-2 xenograft in nude mice
Description: In vivo efficacy of the disclosed compound was tested through a human pancreas tumor xenograft model. Female Ncr nude mice were inoculated with 1×10^7 MIA PaCa-2 human pancreas cells suspended in a mixture of 50% Matrigel and 50% tissue culture media in a total volume of […] When the tumors reached a mean weight of 157 mg, the mice were separated into four groups of 7-8 mice per group and treated. One group was treated with vehicle only. A second group was treated with Compound ID #15 at 50 mg/kg. A third group was treated with Compound ID #15 at 100 mg/kg and a fourth group was treated with Gemcitabine at 80 mg/kg. Vehicle and Compound ID #15 were administered by mouth while Gemcitabine was administered via an intraperitoneal injection. Body weights and tumor size data were collected twice weekly. Tumor width and length were measured in millimeters and converted to tumor weight (in milligrams) using the formula (width^2×Length/2)=tumor weight (mg.)

[2] = Homo sapiens, SK-OV-3, 72 hours treatment
[3] = Homo sapiens, MDA-MB-231, 72 hours treatment
[4] = Homo sapiens, MIA PaCa-2, 72 hours treatment

Compound | IC50 (Skov-3 cells; [2]) [µM] | IC50 (MiaPaca cells; [4]) [µM] | further results
O=C(CCCCCCc1nc2cc(-c3cccc(F)c3)ccc2[nH]1)NO [Compound ID 30, 7-(5-(3-fluorophenyl)-1H-benzo[d]imidazol-2-yl)-N-hydroxyheptanamide] | 1.5 |  | IC50 (mdamb231 cells; [3]): 0.33 µM
O=C(CCCCCCc1nc2cc(-c3ccc(F)cc3)ccc2[nH]1)NO [Compound ID 29, 7-(5-(4-fluorophenyl)-1H-benzo[d]imidazol-2-yl)-N-hydroxyheptanamide] | 1.2 |  | IC50 (mdamb231 cells; [3]): 0.21 µM
O=C(CCCCCCc1nc2ccccc2[nH]1)NO [Compound ID 14, 7-(1H-benzo[d]imidazol-2-yl)-N-hydroxyheptanamide] | 2.7 | 1.9 | 
O=C(CCCCCCc1nc2cc(-c3ccccc3F)ccc2[nH]1)NO [Compound ID 32, 7-(5-(2-fluorophenyl)-1H-benzo[d]imidazol-2-yl)-N-hydroxyheptanamide] | 7.4 |  | 
COc1ccc2[nH]c(CCCCCCC(=O)NO)nc2c1 [Compound ID 17, N-hydroxy-7-(5-methoxy-1H-benzo[d]imidazol-2-yl)heptanamide] | > 10 |  | 
O=C(CCCCCCc1nc2cc(Cl)ccc2[nH]1)NO [Compound ID 22, 7-(5-chloro-1H-benzo[d]imidazol-2-yl)-N-hydroxyheptanamide] | 0.32 |  | 
CN(C)c1ccc2[nH]c(CCCCCCC(=O)NO)nc2c1 [Compound ID 20, 7-(5-(dimethylamino)-1H-benzo[d]imidazol-2-yl)-N-hydroxyheptanamide] | 1.2 |  | 
Cn1c(CCCCCCC(=O)NO)nc2ccccc21 [Compound ID 19, N-hydroxy-7-(1-methyl-1H-benzo[d]imidazol-2-yl) heptanamide] |  |  | IC50 (Skov-3 cells; 72 hours treatment): 3 µM
O=C(CCCCCc1nc2ccccc2[nH]1)NO [Compound ID 16, 6-(1H-benzo[d]imidazol-2-yl)-N-hydroxyhexanamide] | 11 |  | 
O=C(CCCCCCc1nc2ccccc2n1C1CCCC1)NO [Compound ID 25, 7-(1-cyclopentyl-1H-benzo[d]imidazol-2-yl)-N-hydroxyheptanamide] | 4.8 | 2.3 | 
O=C(CCCCCCc1nc2ccccc2n1-c1ccccc1)NO [Compound ID 27, N-hydroxy-7-(1-phenyl-1H-benzo[d]imidazol-2-yl)heptanamide] | > 10 | > 10 | 
COc1ccc(-c2ccc3[nH]c(CCCCCCC(=O)NO)nc3c2)cc1 [Compound ID 33, N-hydroxy-7-(5-(4-methoxyphenyl)-1H-benzo[d]imidazol-2-yl)heptanamide] | 3.2 |  | 
O=C(CCCCCCc1nc2ccccc2n1C1CC1)NO [Compound ID 24, 7-(1-cyclopropyl-1H-benzo[d]imidazol-2-yl)-N-hydroxyheptanamide] | 9.5 | 4 | 
O=C(CCCCCCc1nc2cc(-c3ccccc3)ccc2[nH]1)NO [Compound ID 18, N-hydroxy-7-(5-phenyl-1H-benzo[d]imidazol-2-yl)heptanamide] | 0.098 | 0.4 | 
7-(5-bromo-1H-benzimidazol-2-yl)-N-hydroxy heptanamide [Compound ID 15] |  |  | IC50 (Skov-3 cells; 72 hours treatment): 0.27 µM; IC50 (MiaPaca cells; 72 hours treatment): 0.82 µM; IC50 (mdamb231 cells; 72 hours treatment): 0.89 µM; IC50 (A2780 cell line): 1.9 µM; IC50 (H23 cell line): 0.56 µM; IC50 (H295R cell line): 0.18 µM; IC50 (MV522 cell line): 2.2 µM; IC50 (PANC-1 cell line): 0.13 µM; IC50 (VCAP cell line): 2.4 µM; slowing growth of the xenografts ([1]; 50 mg/kg by mouth): no more effective than the vehicle control; slowing growth of the xenografts ([1]; 100 mg/kg by mouth, comparator gemcitabine 80 mg/kg intraperitoneal): about as effective as gemcitabine
O=C(CCCCCCc1nc2cc(F)ccc2[nH]1)NO [Compound ID 21, 7-(5-fluoro-1H-benzo[d]imidazol-2-yl)-N-hydroxyheptanamide] | 1.9 |  | 
O=C(CCCCCCc1nc2c(Cl)cccc2[nH]1)NO [Compound ID 26, 7-(4-chloro-1H-benzo[d]imidazol-2-yl)-N-hydroxyheptanamide] | 10.2 | 8.5 | 
CN(C)c1ccc(-c2ccc3[nH]c(CCCCCCC(=O)NO)nc3c2)cc1 [Compound ID 31, 7-(5-(4-(dimethylamino)phenyl)-1H-benzo[d]imidazol-2-yl)-N-hydroxyheptanamide] | 6.6 |  | 
O=C(CCCCCCc1nc2ccncc2[nH]1)NO [Compound ID 23, N-hydroxy-7-(3H-imidazo[4,5-c]pyridin-2-yl)heptanamide] | > 10 | > 10 | 
O=C(CCCCCCc1nc2cc(-c3cncnc3)ccc2[nH]1)NO [Compound ID 28, N-hydroxy-7-(5-(pyrimidin-5-yl)-1H-benzo[d]imidazol-2-yl)heptanamide] | 2.6 |  | IC50 (mdamb231 cells; [3]): 0.54 µM
